# Values of other authors, collected in patent publication US20100076037A1, “Methods of Treating Neuropathic Pain with Agonists of PPAR-gamma” (priority 2006, published 2010).
# Key:
# diabetic patients = details: human, in vivo; cited from earlier work
# [1] = cited from earlier work
# rats = details: intrathecal; cited from earlier work
# PPARalpha [2] = molecular target: T1, PPARalpha (Homo sapiens, UniProt Q07869); details: first value of the pair given as α/γ; read-out: EC50 for PPARalpha agonism; cited from earlier work
# T1 sequence (Q07869 1-468): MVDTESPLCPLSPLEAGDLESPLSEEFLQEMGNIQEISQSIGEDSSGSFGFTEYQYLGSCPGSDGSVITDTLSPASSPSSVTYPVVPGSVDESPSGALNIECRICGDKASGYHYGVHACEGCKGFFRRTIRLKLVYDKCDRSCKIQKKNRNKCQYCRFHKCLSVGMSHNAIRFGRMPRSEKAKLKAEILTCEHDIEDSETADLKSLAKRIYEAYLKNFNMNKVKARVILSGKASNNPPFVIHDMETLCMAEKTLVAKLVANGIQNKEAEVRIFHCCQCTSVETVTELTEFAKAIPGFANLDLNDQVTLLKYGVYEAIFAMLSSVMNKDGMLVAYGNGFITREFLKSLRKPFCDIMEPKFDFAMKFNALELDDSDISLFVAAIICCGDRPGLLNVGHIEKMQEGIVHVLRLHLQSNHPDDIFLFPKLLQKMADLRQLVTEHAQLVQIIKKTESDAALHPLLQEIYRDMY
# P-glycoprotein = molecular target: T2, P-glycoprotein (Homo sapiens, UniProt P08183); details: cited from earlier work
# T2 construct: host or cells: Caco2 and MDCK-MDR1 monolayers (tie to the P-gp statement is grammatically loose)
# [3] = test system: multidrug resistance protein 2; details: Caco-2; cited from earlier work
# mouse (m)PPARgamma = molecular target: T3, mouse (m)PPARgamma (Mus musculus, UniProt P37238); details: U2 OS cells, mPPARgamma, cited from earlier work
# T3 construct: expressed in transfected cells; host or cells: U2 OS
# mPPARalpha = mPPARalpha (Mus musculus, UniProt P23204); details: read-out: EC50 reporter gene assay, U2 OS cells; cited from earlier work
# PPARalpha [4] = molecular target: T1, PPARalpha; details: U2 OS cells; cited from earlier work
# [5] = test system: rats subjected to spinal cord injury; details: given before pioglitazone; cited from earlier work
# [6] = 3 or 30 mg/kg; cited from earlier work
# PPARγ = PPARγ (Homo sapiens, UniProt P37231); details: ECV304 cell line; cited from earlier work
# Sequence of PPARγ (P37231 whole entry, species assumed): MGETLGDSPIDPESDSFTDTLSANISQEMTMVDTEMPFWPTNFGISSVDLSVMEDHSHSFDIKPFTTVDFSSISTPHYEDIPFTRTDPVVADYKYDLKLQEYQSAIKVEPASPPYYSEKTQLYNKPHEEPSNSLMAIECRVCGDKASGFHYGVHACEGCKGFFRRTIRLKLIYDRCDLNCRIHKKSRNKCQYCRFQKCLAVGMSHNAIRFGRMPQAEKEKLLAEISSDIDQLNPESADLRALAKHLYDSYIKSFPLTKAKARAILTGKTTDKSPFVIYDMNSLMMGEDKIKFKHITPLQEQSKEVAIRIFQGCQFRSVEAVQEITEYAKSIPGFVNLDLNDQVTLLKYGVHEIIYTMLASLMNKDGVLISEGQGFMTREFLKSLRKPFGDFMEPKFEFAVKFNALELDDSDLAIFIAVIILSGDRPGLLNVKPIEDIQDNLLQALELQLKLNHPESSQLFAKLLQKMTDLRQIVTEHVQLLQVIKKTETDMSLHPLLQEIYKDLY
# T3 sequence (P37238 whole entry): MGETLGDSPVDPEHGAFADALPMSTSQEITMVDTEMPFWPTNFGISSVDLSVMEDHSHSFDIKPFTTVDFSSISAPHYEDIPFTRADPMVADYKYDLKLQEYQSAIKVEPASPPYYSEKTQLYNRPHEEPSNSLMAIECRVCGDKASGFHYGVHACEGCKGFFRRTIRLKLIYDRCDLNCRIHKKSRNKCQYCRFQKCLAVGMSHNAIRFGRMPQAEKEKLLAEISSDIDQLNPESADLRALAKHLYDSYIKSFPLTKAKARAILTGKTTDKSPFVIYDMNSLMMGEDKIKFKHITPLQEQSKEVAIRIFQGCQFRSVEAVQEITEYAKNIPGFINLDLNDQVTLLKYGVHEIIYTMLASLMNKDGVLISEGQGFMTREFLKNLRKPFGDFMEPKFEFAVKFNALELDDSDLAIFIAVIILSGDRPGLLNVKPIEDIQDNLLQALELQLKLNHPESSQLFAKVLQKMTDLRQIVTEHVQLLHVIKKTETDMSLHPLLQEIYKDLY
# Sequence of mPPARalpha (P23204 whole entry): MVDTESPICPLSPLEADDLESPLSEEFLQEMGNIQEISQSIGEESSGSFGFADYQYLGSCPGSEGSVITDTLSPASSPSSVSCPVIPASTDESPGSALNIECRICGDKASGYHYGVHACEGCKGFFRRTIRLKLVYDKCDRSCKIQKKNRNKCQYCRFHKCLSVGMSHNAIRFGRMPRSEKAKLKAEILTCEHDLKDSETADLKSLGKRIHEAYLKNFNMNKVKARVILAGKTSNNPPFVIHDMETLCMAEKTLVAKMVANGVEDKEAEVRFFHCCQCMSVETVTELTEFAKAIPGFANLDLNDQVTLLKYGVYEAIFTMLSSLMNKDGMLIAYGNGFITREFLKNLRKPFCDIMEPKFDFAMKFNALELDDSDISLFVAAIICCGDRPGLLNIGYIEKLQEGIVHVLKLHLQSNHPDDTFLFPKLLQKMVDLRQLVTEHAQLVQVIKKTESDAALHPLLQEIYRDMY
# T2 sequence (P08183 whole entry): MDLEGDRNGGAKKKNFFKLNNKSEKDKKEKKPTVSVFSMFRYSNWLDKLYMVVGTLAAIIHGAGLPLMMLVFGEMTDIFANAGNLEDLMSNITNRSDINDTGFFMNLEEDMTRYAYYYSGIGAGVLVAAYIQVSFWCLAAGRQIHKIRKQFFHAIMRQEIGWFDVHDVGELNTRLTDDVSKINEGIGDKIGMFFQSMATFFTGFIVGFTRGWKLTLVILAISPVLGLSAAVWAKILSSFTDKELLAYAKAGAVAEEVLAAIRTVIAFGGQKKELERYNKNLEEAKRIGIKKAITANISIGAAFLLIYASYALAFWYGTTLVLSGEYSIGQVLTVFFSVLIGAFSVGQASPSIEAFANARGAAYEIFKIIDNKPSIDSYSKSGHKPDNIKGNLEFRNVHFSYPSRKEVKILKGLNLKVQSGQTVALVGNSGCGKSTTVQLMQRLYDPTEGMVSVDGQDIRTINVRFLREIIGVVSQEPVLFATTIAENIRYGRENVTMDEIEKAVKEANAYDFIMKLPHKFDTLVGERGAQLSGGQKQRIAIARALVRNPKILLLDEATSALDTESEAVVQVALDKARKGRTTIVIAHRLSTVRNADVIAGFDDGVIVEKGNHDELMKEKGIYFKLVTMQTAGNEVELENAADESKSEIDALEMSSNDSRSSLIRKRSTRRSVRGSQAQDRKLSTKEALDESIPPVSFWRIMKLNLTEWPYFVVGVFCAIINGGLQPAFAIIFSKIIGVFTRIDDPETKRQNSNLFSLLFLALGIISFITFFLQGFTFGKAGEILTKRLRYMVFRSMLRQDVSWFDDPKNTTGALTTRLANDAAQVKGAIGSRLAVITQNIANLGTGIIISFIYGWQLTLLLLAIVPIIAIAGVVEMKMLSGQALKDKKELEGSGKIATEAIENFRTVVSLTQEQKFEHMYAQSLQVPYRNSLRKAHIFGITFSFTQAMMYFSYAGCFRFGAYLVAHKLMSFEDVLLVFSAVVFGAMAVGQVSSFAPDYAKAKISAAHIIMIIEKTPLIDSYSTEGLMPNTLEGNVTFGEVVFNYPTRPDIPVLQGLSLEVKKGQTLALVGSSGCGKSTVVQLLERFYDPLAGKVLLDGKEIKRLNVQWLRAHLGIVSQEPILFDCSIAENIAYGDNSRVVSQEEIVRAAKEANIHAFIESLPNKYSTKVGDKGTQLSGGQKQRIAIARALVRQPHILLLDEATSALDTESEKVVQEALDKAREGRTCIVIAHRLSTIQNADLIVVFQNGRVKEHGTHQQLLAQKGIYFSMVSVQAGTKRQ
smiles,measurement,setting,value
CCc1ccc(CCOc2ccc(CC3SC(=O)NC3=O)cc2)nc1 (stereo not drawn) [pioglitazone],rates of edema,diabetic patients,4.2%
CCCCC/C=C/C=C1/C(=O)C=C[C@@H]1C/C=C\CCCC(=O)O [15dPGJ2],mechanical allodynia (von Frey),"[1]; intrathecal, 7 days post-SNI",dose-dependently reduced
same,pain behavior,rats,reduction in pain behavior
Cc1oc(-c2ccccc2)nc1CCOc1ccc(CC2C(=O)NOC2=O)cc1 (stereo not drawn) [JTT-501],EC50,PPARalpha [2],400 nM
CCOC(Cc1ccc(OCCc2ccc(OS(C)(=O)=O)cc2)cc1)C(=O)OC1OC(C(=O)O)C(O)C(O)C1O (stereo not drawn) [acylglucuronide metabolite],substrate of P-glycoprotein,P-glycoprotein,not substrates of P-glycoprotein
same,transport in Caco2 and MDCK-MDR1 monolayers,[3],apparently transported by multidrug resistance protein 2
CC(C)(Oc1ccc(CCNC(=O)c2ccc(Cl)cc2)cc1)C(=O)O [bezafibrate],EC50,mouse (m)PPARgamma; read-out: EC50 reporter gene assay,23 µM
same,EC50,mPPARalpha,24 µM
CCO[C@@H](Cc1ccc(OCCN2c3ccccc3Oc3ccccc32)cc1)C(=O)O [NNC-61-0029],EC50,PPARalpha [2],600 nM
Cc1cccc(Nc2cc(Cl)nc(SCC(=O)O)n2)c1C [WY-14643],EC50 reporter gene assay,PPARalpha [4],no activity
same,EC50 reporter gene assay,mouse (m)PPARgamma,no activity
"O=C(Nc1ccccc1)c1cc([N+](=O)[O-])ccc1Cl [GW9662, 2-chloro-5-nitro-N-phenylbenzamide]",effect of pretreatment on pioglitazone-induced motor function recovery,[5],completely abolished
same,threshold (in g),[6],increased
"CC(C)(c1ccc(OCC2CO2)cc1)c1ccc(OCC2CO2)cc1 (stereo not drawn) [BADGE, Bisphenol A diglycidyl ether]",effect on the observed anti-allodynic effects of rosiglitazone and 15dPGJ2,[1]; in vivo,reversed
same,PPARγ activity,PPARγ,has PPARγ agonist activity
